Measurements as given in patent publication US4147767A, “Albumin medicament carrier system” (priority 1977, dated 1979).

Test system: L-676 mouse embryo fibroblasts
Assay: Mouse L-Cell growth inhibition test
Type: cell-based
Conditions: 72 hours
Description: L-676 mouse embryo fibroblasts were grown and maintained in liquid shake cultures of Swims-67G medium fortified by the addition of 5% fetal calf serum and supplemented with 1%, 200 millimolar glutamine.
Free drugs (without a carrier) used as controls were solubilized in either sterile distilled water or acetone and then added to the growth medium.
Drug containing HSA spherules were resuspended in growth medium. A sonifying water bath was employed to aid in suspension.
A 10% (v/v) inoculum of L-cells was employed in a final volume of 20 ml of growth medium containing suspended drug-containing microspheres or free control drug. […] All tests were performed in duplicate.

Compound	% L-Cell Inhibition (1 microgram drug/ml)	% L-Cell Inhibition (10 micrograms drug/ml)	% L-Cell Inhibition (50 micrograms drug/ml)	% L-Cell Inhibition (100 micrograms drug/ml)	% L-Cell Inhibition (25.0 μg drug/ml)
O=c1[nH]cc(F)c(=O)[nH]1 [Pure 5-fluorouracil, 5-fluorouracil]	67%	88%	93%	93%	–
NC(=O)NO [Hydroxyurea]	0%	22%	–	–	–
COc1cc2c(c(OC)c1OC)-c1ccc(OC)c(=O)cc1[C@@H](NC(C)=O)CC2 [Colchicine]	91%	99%	–	–	–
Sc1ncnc2nc[nH]c12 [6-Mercaptopurine]	–	–	94%	–	–
CS(=O)(=O)OCCCCOS(C)(=O)=O [Busulfan]	–	–	–	–	69%
Nc1nc2nc[nH]c2c(=S)[nH]1 [6-Thioguanine]	65%	88%	92%	–	–
O=C(O)CCCc1ccc(N(CCCl)CCCl)cc1 [Chlorambucil]	0%	68%	97%	–	–
CC(=O)OCC(=O)[C@@]1(O)CC[C@H]2[C@@H]3CCC4=CC(=O)CC[C@]4(C)[C@H]3[C@@H](O)C[C@@]21C [Hydrocortisone Acetate]	0%	0%	73%	88%	–
